This is an account of results in ChEMBL document CHEMBL4177700, “Scutellarin inhibits Hela cell growth and glycolysis by inhibiting the activity of pyruvate kinase M2” (Bioorg Med Chem Lett, 2017).

Data set [1] deals with T1, Pyruvate kinase PKM (Homo sapiens, UniProt P14618). In words: Inhibition of recombinant human N-terminal His6/SUMO-tagged PKM2 expressed in Escherichia coli BL21 using PEP as substrate incubated for 30 mins in presence of ADP by spectrophotometric based LDH enzyme coupled assay.
Target sequence in this assay (P14618 whole entry): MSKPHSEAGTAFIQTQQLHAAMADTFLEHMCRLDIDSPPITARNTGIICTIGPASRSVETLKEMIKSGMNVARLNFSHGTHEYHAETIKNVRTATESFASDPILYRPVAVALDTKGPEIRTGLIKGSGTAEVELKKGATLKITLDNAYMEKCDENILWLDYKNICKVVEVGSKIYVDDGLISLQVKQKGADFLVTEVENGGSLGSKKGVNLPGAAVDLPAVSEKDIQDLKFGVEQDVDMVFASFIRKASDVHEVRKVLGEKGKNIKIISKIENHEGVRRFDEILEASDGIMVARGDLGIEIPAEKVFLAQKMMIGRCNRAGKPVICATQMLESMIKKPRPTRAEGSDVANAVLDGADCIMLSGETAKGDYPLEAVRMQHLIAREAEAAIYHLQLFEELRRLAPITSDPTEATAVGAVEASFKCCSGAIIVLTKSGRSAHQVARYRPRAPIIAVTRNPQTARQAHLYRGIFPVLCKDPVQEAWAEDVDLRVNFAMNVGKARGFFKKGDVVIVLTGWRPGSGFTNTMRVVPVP
The species named for the next data set is Homo sapiens. In words: Selectivity ratio of IC50 for recombinant human N-terminal His6/SUMO-tagged PKM1 expressed in Escherichia coli BL21 to IC50 for recombinant human N-terminal His6/SUMO-tagged PKM2 expressed in Escherichia coli BL21.
The target of data set [2] is T1, Pyruvate kinase PKM. In words: Inhibition of recombinant human N-terminal His6/SUMO-tagged PKM1 expressed in Escherichia coli BL21 using PEP as substrate incubated for 30 mins in presence of ADP by spectrophotometric based LDH enzyme coupled assay.
Target sequence in this assay (P14618 whole entry): as above
The test system of data set [3] is HeLa. Put plainly: Cell cycle arrest in human HeLa cells assessed as accumulation at G2 phase at 200 uM after 48 hrs by […]propidium iodide staining based flow cytometry (reference value: 7.91%). The class given is functional.
Data set [4] has as its system HeLa. Put plainly: Activation of MEK/ERK/PIN1 pathway in human HeLa cells assessed as increase in phosphorylated ERK1/2 expression at 100 uM after 2 to 8 hrs by Western blot analysis. It counts as cell-based.
Data set [5] relates to HeLa. Put plainly: Activation of MEK/ERK/PIN1 pathway in human HeLa cells assessed as increase in MEK protein expression at 100 uM after 2 to 8 hrs by Western blot analysis. The class given is cell-based. (A western blot detects proteins with antibodies after separation by electrophoresis.)
Data set [6] has as its system HeLa. In words: Cell cycle arrest in human HeLa cells assessed as accumulation at G2 phase at 400 uM after 48 hrs by […]propidium iodide staining based flow cytometry (reference value: 7.91%). It counts as functional. Background: Flow cytometry measures light scatter and fluorescence of single cells or particles in a stream.
For data set [7], the system named is HeLa. In words: Cell cycle arrest in human HeLa cells assessed as accumulation at G1 phase at 400 uM after 48 hrs by […]propidium iodide staining based flow cytometry (reference value: 66.69%). The class given is functional.
Data set [8] concerns HeLa. In words: Activation of MEK/ERK/PIN1 pathway in human HeLa cells assessed as increase in PIN1 expression at 100 uM after 2 to 8 hrs by Western blot analysis. The class given is cell-based.
Data set [9] deals with HeLa. In words: Antiproliferative activity against human HeLa cells at 50 to 400 uM after 48 hrs by MTS assay. The class given is functional, cell-based.
Data set [10] addresses T1, Pyruvate kinase PKM. Put plainly: Inhibition of PKM2 in human HeLa cells assessed as reduction in cellular glycolytic rate after 6 hrs. The class given is cell-based.
Target sequence in this assay (P14618 2-531 limits assumed): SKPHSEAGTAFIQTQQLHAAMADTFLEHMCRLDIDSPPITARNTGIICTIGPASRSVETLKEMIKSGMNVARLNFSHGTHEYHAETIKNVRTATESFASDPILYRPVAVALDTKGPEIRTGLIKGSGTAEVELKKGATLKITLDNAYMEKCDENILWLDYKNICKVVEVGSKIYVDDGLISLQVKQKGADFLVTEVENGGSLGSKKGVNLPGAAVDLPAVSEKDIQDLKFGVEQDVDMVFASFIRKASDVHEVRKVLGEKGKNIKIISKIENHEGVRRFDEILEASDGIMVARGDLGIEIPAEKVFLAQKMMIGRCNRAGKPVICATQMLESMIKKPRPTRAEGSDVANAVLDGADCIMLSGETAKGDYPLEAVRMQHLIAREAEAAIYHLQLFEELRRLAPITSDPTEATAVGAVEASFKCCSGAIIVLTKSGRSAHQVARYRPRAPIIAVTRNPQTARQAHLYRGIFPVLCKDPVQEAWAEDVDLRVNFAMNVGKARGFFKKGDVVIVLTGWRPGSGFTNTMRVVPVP
Data set [11] concerns HeLa. In words: Induction of apoptosis in human HeLa cells assessed as increase in cleaved caspase 3 expression level at 100 to 400 uM by Western blot analysis. It counts as functional, cell-based.
The test system of data set [12] is HeLa. In words: Cell cycle arrest in human HeLa cells assessed as accumulation at S phase at 200 uM after 48 hrs by […]propidium iodide staining based flow cytometry (reference value: 25.41%). The class given is functional.
The subject of data set [13] is HeLa. In words: Induction of apoptosis in human HeLa cells at 200 to 400 uM after 48 hrs by Annexin V/propidium iodide staining based flow cytometry. It counts as functional, cell-based.
In data set [14] the test system is HeLa. In words: Induction of apoptosis in human HeLa cells assessed as increase in Bax/Bcl-2 expression level at 100 to 400 uM by Western blot analysis. It counts as functional, cell-based.
In data set [15] the test system is HeLa. Put plainly: Down regulation of cyclin B expression level in human HeLa cells at 200 to 400 uM by Western blot analysis. The class given is functional, cell-based.
Data set [16] relates to HeLa. In words: Down regulation of CDK1 expression level in human HeLa cells at 200 to 400 uM by Western blot analysis. It counts as functional, cell-based.
In data set [17] the test system is HeLa. In words: Cell cycle arrest in human HeLa cells assessed as accumulation at S phase at 400 uM after 48 hrs by […]propidium iodide staining based flow cytometry (reference value: 25.41%). It counts as functional.
The target of the next data set is L-lactate dehydrogenase (Homo sapiens, UniProt V9HWB9). Put plainly: Inhibition of LDH (unknown origin) assessed as reduction in NADH oxidation at 200 uM after 30 mins. The note with it: 0.5 h.
In data set [18] the test system is HeLa. In words: Effect on Glut1 expression level in human HeLa cells at 100 to 400 uM after 6 hrs by Western blot analysis. It counts as functional, cell-based.
Data set [19] relates to HeLa. Put plainly: Cell cycle arrest in human HeLa cells assessed as accumulation at G1 phase at 200 uM after 48 hrs by […]propidium iodide staining based flow cytometry (reference value: 66.69%). It counts as functional.
For data set [20], the target named is T1, Pyruvate kinase PKM. Put plainly: Binding affinity to PKM2 in human HeLa cell lysates at 200 uM after 6 hrs by silver staining based LC-MS/MS pull down analysis.
Target sequence in this assay (P14618 2-531 limits assumed): as above
A short description of data set [21]: Stability in culture medium at 200 uM after 6 hrs by HPLC analysis (reference value: 100%). The note with it: read-out: Stability. It counts as physicochemical.
Data set [22] concerns the target T1, Pyruvate kinase PKM. In words: Binding affinity to PKM2 in human MCF7 cells at 100 uM after 6 hrs by co-immunoprecipitation based Western blot analysis. It counts as cell-based.
Target sequence in this assay (P14618 2-531 limits assumed): as above
Data set [23] concerns the target T1, Pyruvate kinase PKM. In words: Binding affinity to PKM2 in human HeLa cells at 100 uM after 6 hrs in presence of biotin by Western blot analysis. It counts as cell-based.
Target sequence in this assay (P14618 2-531 limits assumed): as above
Data set [24] in a line: Stability in human HeLa cells at 200 uM after 24 hrs by HPLC analysis (reference value: 100%). The note with it: read-out: Stability. It counts as ADME, cell-based.
Data set [25] in a line: Stability in culture medium at 200 uM after 12 hrs by HPLC analysis (reference value: 100%). The class given is physicochemical. The note with it: read-out: Stability.
Data set [26] can be described thus: Stability in human HeLa cells at 200 uM after 12 hrs by HPLC analysis (reference value: 100%). The class given is ADME, cell-based. As to conditions: read-out: Stability.
Data set [27] concerns the target T1, Pyruvate kinase PKM. Put plainly: Binding affinity to PKM2 in human A549 cells at 100 uM after 6 hrs by co-immunoprecipitation based Western blot analysis. The class given is cell-based.
Target sequence in this assay (P14618 2-531 limits assumed): as above
The target in data set [28] is T1, Pyruvate kinase PKM. In words: Binding affinity to PKM2 in human HeLa cells at 100 uM after 6 hrs by co-immunoprecipitation based Western blot analysis. It counts as cell-based.
Target sequence in this assay (P14618 2-531 limits assumed): as above
A short description of data set [29]: Stability in culture medium at 200 uM after 24 hrs by HPLC analysis (reference value: 100%). The note with it: read-out: Stability. The class given is physicochemical.
The nature of data set [30]: Stability in culture medium at 200 uM after 3 hrs by HPLC analysis (reference value: 100%). The class given is physicochemical. The note with it: read-out: Stability.
The nature of data set [31]: Stability in human HeLa cells at 200 uM after 3 hrs by HPLC analysis (reference value: 100%). As to conditions: read-out: Stability. The class given is ADME, cell-based.
Data set [32] in a line: Stability in human HeLa cells at 200 uM after 6 hrs by HPLC analysis (reference value: 100%). The class given is ADME, cell-based. The note with it: read-out: Stability.

pIC50: −log10 of the molar value. Calls of active or inactive are those of the source. The calls are words filed in the database; no cut-off is given here.

As for `CC(C)=CC[C@@H](O)C1=CC(=O)c2c(O)ccc(O)c2C1=O` [SHIKONIN], the results for the pIC50 on Pyruvate kinase PKM [1] and at Pyruvate kinase PKM [2] were 6.30 and 5.00, respectively. Also, the Ratio IC50 in the data set listed under Homo sapiens was found to be 20.
Take `O=c1cc(-c2ccc(O)cc2)oc2cc(O)c(O)c(O)c12` [SCUTELLAREIN]: the Activity in the data set on HeLa [3] is listed as 12.55%; with HeLa [6], 16.19%; in the data set with HeLa [7], 51.91%; in the data set with HeLa [12] it was 25.34%; in the data set on HeLa [17], 31.89%; in the data set with HeLa [19], 62.11%. Further, the outcome with HeLa [4], with HeLa [5], in the data set on HeLa [8], in the data set with HeLa [9], in the data set with HeLa [11] and in the data set with HeLa [13] was Active. Further, the result with HeLa [14], in the data set with HeLa [15] and in the data set on HeLa [16] was Active. Also, on Pyruvate kinase PKM [10], the inhibition entry was “Dose-dependent effect”. The negative logarithm of the IC50 (pIC50) – broadly, the IC50 on a negative log10 scale, so that one unit is a factor of ten – is 4.90 at Pyruvate kinase PKM [1] and 4.00 on Pyruvate kinase PKM [2]. For the same compound, the Ratio IC50 in the data set listed under Homo sapiens turned out to be 8. The “inhibition (INH)” value at L-lactate dehydrogenase was “Not Active”. Also, in the data set with HeLa [18], the outcome was inactive.
Regarding `NCCOCCOCCNC(=O)CCCC[C@@H]1SC[C@@H]2NC(=O)N[C@@H]21`, the result at Pyruvate kinase PKM [20] was Active.
As for `Cc1ccc(C)n1-c1ccc(O)c(C(=O)O)c1`, the negative logarithm of the IC50 (pIC50) is 4.90 at Pyruvate kinase PKM [1] and 4.00 on Pyruvate kinase PKM [2]. Besides, the Ratio IC50 in the data set listed under Homo sapiens was determined as 8.
For `O=C(O)[C@H]1O[C@@H](Oc2cc3oc(-c4ccc(O)cc4)cc(=O)c3c(O)c2O)[C@H](O)[C@@H](O)[C@@H]1O`, the inhibition result on Pyruvate kinase PKM [10] is “Dose-dependent effect”.
For `O=C(CCCC[C@@H]1SC[C@@H]2NC(=O)N[C@@H]21)NCCOCCOCCNC(=O)COc1ccc(-c2cc(=O)c3c(O)c(O)c(O)cc3o2)cc1`, the Activity in the data set on HeLa [3] is given as 11.51%; in the data set on HeLa [6], 15.52%; in the data set with HeLa [7] it was 47.56%; with HeLa [12], 25.44%; with HeLa [17], 36.92%; in the data set with HeLa [19], 63.05%. In addition, the remaining at 6 h, 200 µM came to 87% in [21] and 93% in data set [32]. Moreover, the result at Pyruvate kinase PKM [22], on Pyruvate kinase PKM [20], at Pyruvate kinase PKM [27], in the data set on HeLa [9], at Pyruvate kinase PKM [28] and in the data set with HeLa [13] was Active. Further, the result at Pyruvate kinase PKM [23] was inactive. The remaining at 24 h, 200 µM in data set [24] came out at 29%; in [29] it was 52%. Further, the values for the remaining at 12 h, 200 µM in data set [25] and in [26] were 54% and 36%, respectively. Besides, the remaining at 3 h, 200 µM in [30] worked out at 89%; in [31] it was 98%.
On to `O=C1N[C@H]2[C@H](CS[C@H]2CCCCC(=O)Oc2ccc(-c3cc(=O)c4c(O)c(O)c(O)cc4o3)cc2)N1`, for which the results for the remaining at 6 h, 200 µM in [21] and in [32] were 97% and 85%, respectively. Also, the remaining at 24 h, 200 µM in [24] was 37%; in data set [29], 49%. Also, the remaining at 12 h, 200 µM was found to be 50% in data set [25] and 37% in data set [26]. Moreover, the result at Pyruvate kinase PKM [20] and with HeLa [9] was Active. In addition, the remaining at 3 h, 200 µM was found to be 98% in [30] and 99% in data set [31].
